US10004701B2, “Methods and compositions for treating infection” (UNIVERSITY OF ROCHESTER, priority 2012, dated 2018)
Where a name gives a salt, the structure may show the parent alone. Read-outs that look alike come from different tables or passages of the source.

Experiments:
Test in all cases: AK assay 384-well format, Prestwick library screening
[1] = test system: A. baumannii strain 98-37-09; assay type: cell-based, Acinetobacter baumannii; details: 50 μM final drug concentration; for fold induction at 50 µM: Acinetobacter baumannii, 983709, 3 h
P. aeruginosa = assay type: cell-based, Pseudomonas aeruginosa; details: 50 μM final drug concentration; for fold induction at 50 µM: Pseudomonas aeruginosa, 3 h
K. pneumoniae = assay type: cell-based, Klebsiella pneumoniae; details: 50 μM final drug concentration; for fold induction at 50 µM: Klebsiella pneumoniae, 3 h
E. cloacae = assay type: cell-based, Enterobacter cloacae; details: 50 μM final drug concentration; for fold induction at 50 µM: Enterobacter cloacae, 3 h
E. coli = assay type: cell-based, Escherichia coli; details: 50 μM final drug concentration; for fold induction at 50 µM: Escherichia coli, 3 h
[2] = test system: S. aureus strain USA300-0114; assay type: cell-based, Staphylococcus aureus; details: 50 μM final drug concentration; for fold induction at 50 µM: Staphylococcus aureus, USA300, 3 h
E. faecium = assay type: cell-based, Enterococcus faecium; details: 50 μM final drug concentration; for fold induction at 50 µM: Enterococcus faecium, 3 h
[3] = 384-well format, cutoff for positive-scoring molecules 3-fold increase
[4] = planktonic A. baumannii, positive cutoff 3-fold increase, read-out: AK-based Prestwick library screening result, A. baumannii (fold increase in extracellular AK activity)
[5] = planktonic P. aeruginosa, positive cutoff 3-fold increase, read-out: AK-based Prestwick library screening result, P. aeruginosa (fold increase in extracellular AK activity)
[6] = planktonic K. pneumoniae, positive cutoff 3-fold increase, read-out: AK-based Prestwick library screening result, K. pneumoniae (fold increase in extracellular AK activity)
[7] = planktonic E. cloacae, positive cutoff 3-fold increase, read-out: AK-based Prestwick library screening result, E. cloacae (fold increase in extracellular AK activity)
[8] = planktonic E. coli, positive cutoff 3-fold increase, read-out: AK-based Prestwick library screening result, E. coli (fold increase in extracellular AK activity)
[9] = planktonic S. aureus, positive cutoff 3-fold increase, read-out: AK-based Prestwick library screening result, S. aureus (fold increase in extracellular AK activity)
[10] = planktonic E. faecium, positive cutoff 3-fold increase, read-out: AK-based Prestwick library screening result, E. faecium (fold increase in extracellular AK activity)
[11] = planktonic A. baumannii, 384-well, cutoff for positive-scoring molecules 3-fold increase, read-out: AK-based Prestwick Library Screening Results: A. baumannii (increase in extracellular AK activity)
[12] = planktonic P. aeruginosa, 384-well, cutoff for positive-scoring molecules 3-fold increase, read-out: AK-based Prestwick Library Screening Results: P. aeruginosa (increase in extracellular AK activity)
[13] = planktonic K. pneumoniae, 384-well, cutoff for positive-scoring molecules 3-fold increase, read-out: AK-based Prestwick Library Screening Results: K. pneumoniae (increase in extracellular AK activity)
[14] = planktonic E. cloacae, 384-well, cutoff for positive-scoring molecules 3-fold increase, read-out: AK-based Prestwick Library Screening Results: E. cloacae (increase in extracellular AK activity)
[15] = planktonic E. coli, 384-well, cutoff for positive-scoring molecules 3-fold increase, read-out: AK-based Prestwick Library Screening Results: E. coli (increase in extracellular AK activity)
[16] = planktonic S. aureus, 384-well, cutoff for positive-scoring molecules 3-fold increase, read-out: AK-based Prestwick Library Screening Results: S. aureus (increase in extracellular AK activity)
[17] = planktonic E. faecium, 384-well, cutoff for positive-scoring molecules 3-fold increase, read-out: AK-based Prestwick Library Screening Results: E. faecium (increase in extracellular AK activity)

With `Cc1c(O)c(=O)n(-c2ccccc2)n1C` [Antipyrine, 4-hydroxy] the “AK-based Prestwick Library Screening Results, A. baumannii (increase in extracellular AK activity)” value [1, 3] was 0.8, the “AK-based Prestwick Library Screening Results, P. aeruginosa (increase in extracellular AK activity)” value (P. aeruginosa; [3]) was 0.8 and the “AK-based Prestwick Library Screening Results, K. pneumoniae (increase in extracellular AK activity)” value (K. pneumoniae; [3]) was 0.7. For the same compound, the “AK-based Prestwick Library Screening Results, E. cloacae (increase in extracellular AK activity)” value (E. cloacae; [3]) was 1.0, the “AK-based Prestwick Library Screening Results, E. coli (increase in extracellular AK activity)” value (E. coli; [3]) was 0.9 and the “AK-based Prestwick Library Screening Results, S. aureus (increase in extracellular AK activity)” value [2, 3] was 0.7. The “AK-based Prestwick Library Screening Results, E. faecium (increase in extracellular AK activity)” value (E. faecium; [3]) was 1.0.

With `Cc1cc(=O)n(-c2ccccc2)n1C` [Antipyrine] the fold induction at 50 µM ([1]; 384-well format, […], read-out: AK-based Prestwick Library Screening Results, A. baumannii (increase in extracellular AK activity)) was 1, the fold induction at 50 µM (P. aeruginosa; 384-well format, […], read-out: AK-based Prestwick Library Screening Results, P. aeruginosa (increase in extracellular AK activity)) was 0.8 and the fold induction at 50 µM (K. pneumoniae; 384-well format, […], read-out: AK-based Prestwick Library Screening Results, K. pneumoniae (increase in extracellular AK activity)) was 0.7. It also gave a fold induction at 50 µM (E. cloacae; 384-well format, […], read-out: AK-based Prestwick Library Screening Results, E. cloacae (increase in extracellular AK activity)) of 1, a fold induction at 50 µM (E. coli; 384-well format, cutoff for positive-scoring molecules 3-fold increase, read-out: AK-based Prestwick Library Screening Results, E. coli (increase in extracellular AK activity)) of 0.9 and a fold induction at 50 µM ([2]; 384-well format, […], read-out: AK-based Prestwick Library Screening Results, S. aureus (increase in extracellular AK activity)) of 0.7. The fold induction at 50 µM (E. faecium; 384-well format, […], read-out: AK-based Prestwick Library Screening Results, E. faecium (increase in extracellular AK activity)) was 1.

Compound `CN[C@@H]1[C@@H](O[C@H]2O[C@H](CO)[C@@H](N)[C@H](O)[C@H]2O)OC2C[C@@H](N)[C@@H](O[C@H]3[C@H](O)[C@@H](O)[C@H](N)C[C@@H]3N)OC2[C@@H]1O` (stereo partly shown) [Apramycin] has a fold induction at 50 µM [1, 4] of 1, a fold induction at 50 µM (P. aeruginosa; [5]) of 1.1 and a fold induction at 50 µM (K. pneumoniae; [6]) of 0.8. The fold induction at 50 µM (E. cloacae; [7]) was 1.4, the fold induction at 50 µM (E. coli; [8]) was 1.2 and the fold induction at 50 µM [2, 9] was 0.9. For the same compound, the fold induction at 50 µM (E. faecium; [10]) was 1.

`OC[C@H]1O[C@@H](Oc2ccc(O)cc2)[C@H](O)[C@@H](O)[C@@H]1O` [Arbutin] showed a fold induction at 50 µM [1, 4] of 1.5, a fold induction at 50 µM (P. aeruginosa; [5]) of 1.1 and a fold induction at 50 µM (K. pneumoniae; [6]) of 1.2. For the same compound, the fold induction at 50 µM (E. cloacae; [7]) was 1.4, the fold induction at 50 µM (E. coli; [8]) was 1.2 and the fold induction at 50 µM [2, 9] was 1.1. It also gave a fold induction at 50 µM (E. faecium; [10]) of 0.9.

`NC(N)=NCCCCN=C(N)N` [Arcaine sulfate] gave a fold induction at 50 µM ([1]; cutoff for positive-scoring molecules 3-fold increase, read-out: AK-based Prestwick Library Screening Results, A. baumannii (fold increase in extracellular AK activity)) of 0.8, a fold induction at 50 µM (P. aeruginosa; cutoff for positive-scoring molecules 3-fold increase, read-out: AK-based Prestwick Library Screening Results, P. aeruginosa (fold increase in extracellular AK activity)) of 0.8 and a fold induction at 50 µM (K. pneumoniae; cutoff for positive-scoring molecules 3-fold increase, read-out: AK-based Prestwick Library Screening Results, K. pneumoniae (fold increase in extracellular AK activity)) of 0.7. It also gave a fold induction at 50 µM (E. cloacae; cutoff for positive-scoring molecules 3-fold increase, read-out: AK-based Prestwick Library Screening Results, E. cloacae (fold increase in extracellular AK activity)) of 1.2, a fold induction at 50 µM (E. coli; cutoff for positive-scoring molecules 3-fold increase, read-out: AK-based Prestwick Library Screening Results, E. coli (fold increase in extracellular AK activity)) of 0.7 and a fold induction at 50 µM ([2]; cutoff for positive-scoring molecules 3-fold increase, read-out: AK-based Prestwick Library Screening Results, S. aureus (fold increase in extracellular AK activity)) of 0.9. The fold induction at 50 µM (E. faecium; cutoff for positive-scoring molecules 3-fold increase, read-out: AK-based Prestwick Library Screening Results, E. faecium (fold increase in extracellular AK activity)) was 0.6.

`COC(=O)C1=CCCN(C)C1` [Arecoline hydrobromide] showed a fold induction at 50 µM ([1]; planktonic A. baumannii, 384-well, […], read-out: AK-based Prestwick Library Screening Results: A. baumannii (increase in extracellular AK activity)) of 0.4, a fold induction at 50 µM (P. aeruginosa; planktonic P. aeruginosa, 384-well, […], read-out: AK-based Prestwick Library Screening Results: P. aeruginosa (increase in extracellular AK activity)) of 0.4 and a fold induction at 50 µM (K. pneumoniae; planktonic K. pneumoniae, 384-well, […], read-out: AK-based Prestwick Library Screening Results: K. pneumoniae (increase in extracellular AK activity)) of 0.4. The fold induction at 50 µM (E. cloacae; planktonic E. cloacae, 384-well, […], read-out: AK-based Prestwick Library Screening Results: E. cloacae (increase in extracellular AK activity)) was 0.3, the fold induction at 50 µM (E. coli; planktonic E. coli, 384-well, […], read-out: AK-based Prestwick Library Screening Results: E. coli (increase in extracellular AK activity)) was 0.4 and the fold induction at 50 µM ([2]; planktonic S. aureus, 384-well, […], read-out: AK-based Prestwick Library Screening Results: S. aureus (increase in extracellular AK activity)) was 0.4. For the same compound, the fold induction at 50 µM (E. faecium; planktonic E. faecium, 384-well, […], read-out: AK-based Prestwick Library Screening Results: E. faecium (increase in extracellular AK activity)) was 0.9.

In the case of `C[C@@H]1CC[C@H]2[C@@H](C)C(=O)O[C@@H]3O[C@@]4(C)CC[C@@H]1[C@]32OO4` [Artemisinin], the fold induction at 50 µM ([1]; planktonic A. baumannii, cutoff for positive-scoring molecules 3-fold increase, read-out: AK-based Prestwick Library Screening Results, A. baumannii (increase in extracellular AK activity)) is reported as 0.7, the fold induction at 50 µM (P. aeruginosa; planktonic P. aeruginosa, cutoff for positive-scoring molecules 3-fold increase, read-out: AK-based Prestwick Library Screening Results, P. aeruginosa (increase in extracellular AK activity)) is reported as 0.6 and the fold induction at 50 µM (K. pneumoniae; planktonic K. pneumoniae, cutoff for positive-scoring molecules 3-fold increase, read-out: AK-based Prestwick Library Screening Results, K. pneumoniae (increase in extracellular AK activity)) is reported as 0.6. It also gave a fold induction at 50 µM (E. cloacae; planktonic E. cloacae, cutoff for positive-scoring molecules 3-fold increase, read-out: AK-based Prestwick Library Screening Results, E. cloacae (increase in extracellular AK activity)) of 0.7, a fold induction at 50 µM (E. coli; planktonic E. coli, cutoff for positive-scoring molecules 3-fold increase, read-out: AK-based Prestwick Library Screening Results, E. coli (increase in extracellular AK activity)) of 0.5 and a fold induction at 50 µM ([2]; planktonic S. aureus, cutoff for positive-scoring molecules 3-fold increase, read-out: AK-based Prestwick Library Screening Results, S. aureus (increase in extracellular AK activity)) of 0.5. It also gave a fold induction at 50 µM (E. faecium; planktonic E. faecium, cutoff for positive-scoring molecules 3-fold increase, read-out: AK-based Prestwick Library Screening Results, E. faecium (increase in extracellular AK activity)) of 0.9.

`CCCNC(C)C(=O)Nc1c(C)csc1C(=O)OC` (stereo not shown) [Articaine hydrochloride] gave a fold induction at 50 µM [1, 4] of 1.2, a fold induction at 50 µM (P. aeruginosa; [5]) of 1 and a fold induction at 50 µM (K. pneumoniae; [6]) of 1.1. It also gave a fold induction at 50 µM (E. cloacae; [7]) of 1.6, a fold induction at 50 µM (E. coli; [8]) of 1.1 and a fold induction at 50 µM [2, 9] of 1.1. It also gave a fold induction at 50 µM (E. faecium; [10]) of 1.2.

In the case of `O=C1O[C@H]([C@@H](O)CO)C(O)=C1O` [Ascorbic acid], the fold induction at 50 µM [1, 11] is reported as 0.4, the fold induction at 50 µM (P. aeruginosa; [12]) is reported as 0.3 and the fold induction at 50 µM (K. pneumoniae; [13]) is reported as 0.5. It also gave a fold induction at 50 µM (E. cloacae; [14]) of 0.4, a fold induction at 50 µM (E. coli; [15]) of 0.5 and a fold induction at 50 µM [2, 16] of 0.4. For the same compound, the fold induction at 50 µM (E. faecium; [17]) was 0.9.

With `COc1ccc(CCN2CCC(Nc3nc4ccccc4n3Cc3ccc(F)cc3)CC2)cc1` [Astemizole] the fold induction at 50 µM [1, 11] was 1.6, the fold induction at 50 µM (P. aeruginosa; [12]) was 1 and the fold induction at 50 µM (K. pneumoniae; [13]) was 1.1. For the same compound, the fold induction at 50 µM (E. cloacae; [14]) was 1.6, the fold induction at 50 µM (E. coli; [15]) was 1.3 and the fold induction at 50 µM [2, 16] was 2.2. It also gave a fold induction at 50 µM (E. faecium; [17]) of 1.
